From patent US6555062B1, “Reagent container for an automated analyzer” (Bayer Corporation, priority 1991, dated 2003) come the findings set out here.

Experiment [1] has as its system prostate specific antigen (PSA) assay. Kind of experiment: PSA chemiluminescent immunoassay, interfering substances (endogenous compounds, chemotherapeutic agents). The following applies: mean over three PSA levels. As for the experimental part:
A prostate specific antigen (PSA) assay has been developed for the above described automated analyzer. The PSA assay utilizes an anti-PSA antibody solid phase and a labeled anti-PSA antibody as a tracer reagent. […] A test sample (100 uL.), tracer reagent (50 uL.) and solid phase reagent (250 uL.) are dispersed into a cuvette by the analyzer and incubated for 7.5 minutes at 37° C. After the incubation, magnetic separation and washes are performed as described above prior to detection of the chemiluminescent signal.
All data presented was generated based on a two-point calibration off a standard curve consisting of eight points.

Experiment [2] concerns T4 antiserum covalently coupled to the solid phase. Briefly: Free thyroxine (FT4) competitive chemiluminescent immunoassay, specificity (% cross-reactivity). Type of experiment: binding. The following applies: FT4 assay, anti-T4 paramagnetic particles, 7.5 minutes at 37° C. As for the experimental part: A free thyroxine (FT4) assay has been developed for the above described automated analyzer. The FT4 assay is a competitive binding assay in which FT4 in a test sample competes with labeled T4 (tracer reagent) for a limited amount of T4 antiserum covalently coupled to the solid phase. In the preferred format of this assay acridinium ester is the label and paramagnetic particles serve as the solid phase. A test sample (25 uL.) acridinium ester labeled T4 (100 uL.) and anti-T4 paramagnetic particles (450 uL.) are dispensed by the analyzer into a cuvette and incubated for 7.5 minutes at 37° C. After incubation, magnetic separation and washes are performed as described prior to detection of the chemiluminescent signal. The amount of FT4 present in the test sample is determined by the level of the signed detected and is converted to a dose by a two-point data reduction algorithm.

Experiment [3] concerns monoclonal anti-digoxin antibody. Briefly: Digoxin chemiluminescent immunoassay, specificity (cross-reactivity, effect on dose). Type of experiment: binding. The following applies: digoxin assay. As to the method:
A digoxin assay has been developed for the above described automated analyzer. The digoxin assay architecture is a hapten solid phase with a labeled antibody (tracer reagent). In the preferred format of this assay, the tracer reagent is an acridinium ester labeled monoclonal anti-digoxin antibody; and the solid phase is paramagnetic particles to which digoxin-apoferritin has been immobilized. A test sample (150 uL.) and tracer reagent (50 uL.) are dispensed into a cuvette by the analyzer and incubated for 2.5 minutes at 37° C. The solid phase reagent (250 uL.) is then added to the cuvette followed by an additional incubation of 5.0 minutes. After the second incubation, magnetic separation and washes are performed as described above prior to detection of the chemiluminescent signal.
(§1) All data presented was generated based upon a two-point recalibration off an original master curve. The master curve was generated using eight standards with values ranging from zero to 6 ng/mL digoxin.
The test assay has a sensitivity of less than 0.1 ng/mL (minimum detectable dose defined as the 95% confidence limit at 0 ng/mL.) with a range of 0-5 ng/mL. The correlation of the automated test assay with a manual test assay (Magic^R Digoxin, Ciba Corning Diagnostics, Corp.) provided a slope of 1.00, an intercept of 0.08 and a correlation coefficient of 0.97 (N=130).

Experiment [4] concerns human chorionic gonadotropin (hCG) assay. Kind of experiment: hCG sandwich immunoassay, interfering substances (NCCLS protocols). The following applies: bilirubin 20, lipid 1,000, hemolysate 500 mg/dL. As to the method:
A human chorionic gonadotropin (hCG) assay has been developed for the above described automated analyzer. […] A test sample (50 uL.) and tracer reagent (100 uL.) are dispensed into a cuvette by the analyzer and incubated for 5.0 minutes at 37° C. The capture solid phase reagent (450 uL.) is then added to the cuvette followed by an additional incubation of 2.5 minutes. After the second incubation, magnetic separation and washes are performed as described above prior to detection of the chemiluminescent signal.
All data presented was generated based on a two-point calibration off a full standard master curve, consisting of ten standards. The standards, ranging from zero to 1000 mIU/mL., are calibrated against the WHO 1st 75/537 reference material.

Experiment [5] in a line: Digoxin immunoassay, interfering substances (NCCLS protocols). The following applies: bilirubin 20, lipid 1,000, hemolysate 500 mg/dL. As for the experimental part:
A digoxin assay has been developed for the above described automated analyzer. The digoxin assay architecture is a hapten solid phase with a labeled antibody (tracer reagent). […] A test sample (150 uL.) and tracer reagent (50 uL.) are dispensed into a cuvette by the analyzer and incubated for 2.5 minutes at 37° C. The solid phase reagent (250 uL.) is then added to the cuvette followed by an additional incubation of 5.0 minutes. After the second incubation, magnetic separation and washes are performed as described above prior to detection of the chemiluminescent signal.
as §1

Several values for one entry are separate records, joined by “and”; a condition that tells them apart may be missing. Equal entries are not always repeated.

Turning to `CC(=O)O[C@]1(C(C)=O)CC[C@H]2[C@@H]3C=C(C)C4=CC(=O)CC[C@]4(C)[C@H]3CC[C@@]21C` [Megestrol Acetate], the “Spiked vs. Control, Mean +/− SD” value in experiment [1] (chemotherapeutic agents) is reported as 101 +/− 5%. Consider `NC(Cc1ccc(Oc2cc(I)c(O)c(I)c2)c(I)c1)C(=O)O` (centres unmarked) [Reverse triiodothyronine], for which the “% Cross-Reactivity” value in experiment [2] came out at 3.1%. As for `C[C@@H]1O[C@@H](O[C@H]2C[C@@H](O)[C@]3(CO)[C@H]4[C@H](O)C[C@]5(C)[C@@H](C6=CC(=O)OC6)CC[C@]5(O)[C@@H]4CC[C@]3(O)C2)[C@H](O)[C@H](O)[C@H]1O` [Ouabain], the “% Cross-Reactivity” value in experiment [3] worked out at 7.3%. For `N[C@@H](Cc1cc(I)c(Oc2ccc(O)c(I)c2)c(I)c1)C(=O)O` [L-triiodothyronine], the “% Cross-Reactivity” value in experiment [2] worked out at 3.9%. Still for that read-out and setting: next, `N[C@@H](Cc1ccc(O)c(I)c1)C(=O)O` [Monoiodotyrosine]: less than 0.002%.

Take `CC/C(=C(/CC)c1ccc(O)cc1)c1ccc(O)cc1` [Diethyl-Stilbesterol]: in experiment [1] (chemotherapeutic agents), the “Spiked vs. Control, Mean +/− SD” value was 101 +/− 5%. `N[C@H](Cc1cc(I)c(Oc2cc(I)c(O)c(I)c2)c(I)c1)C(=O)O` [D-thyroxine]: the “% Cross-Reactivity” value in experiment [2] was more than 64%. For `CO[C@H]1[C@@H](O)C[C@H](O[C@H]2[C@@H](O)C[C@H](O[C@H]3[C@@H](O)C[C@H](O[C@H]4CC[C@@]5(C)[C@H](CC[C@@H]6[C@@H]5C[C@@H](O)[C@]5(C)[C@@H](C7=CC(=O)OC7)CC[C@]65O)C4)O[C@@H]3C)O[C@@H]2C)O[C@@H]1C` [β-Methyldigoxin], in experiment [3], the “% Cross-Reactivity” value was 109.4%.

As to “Hemoglobin: endogenous interferent spiked into patient samples at 500 mg/dL”, the “Spiked vs. Control, Mean +/− SD” value in experiment [1] (endogenous interferents) is 99 +/− 4%. In the case of `C=CC1=C(C)/C(=C/c2[nH]c(Cc3[nH]c(/C=C4\NC(=O)C(C)=C4C=C)c(C)c3CCC(=O)O)c(CCC(=O)O)c2C)NC1=O` [Unconjug. Bilirubin], the “Spiked vs. Control” value in experiment [4] is 106% and 98% and 103%; in experiment [5], 105% and 99%. The “Spiked vs. Control, Mean +/− SD” value in experiment [1] (endogenous interferents) is given as 103 +/− 6%. In the case of `O=P1(N(CCCl)CCCl)NCCCO1` (centres unmarked) [Cyclophosphamide], in experiment [1] (chemotherapeutic agents), the “Spiked vs. Control, Mean +/− SD” value is recorded as 98 +/− 3%. As to `CC(=O)O[C@H]1C[C@H](O[C@H]2[C@@H](O)C[C@H](O[C@H]3[C@@H](O)C[C@H](O[C@H]4CC[C@@]5(C)[C@H](CC[C@@H]6[C@@H]5C[C@@H](O)[C@]5(C)[C@@H](C7=CC(=O)OC7)CC[C@]65O)C4)O[C@@H]3C)O[C@@H]2C)O[C@H](C)[C@H]1O[C@@H]1O[C@H](CO)[C@@H](O)[C@H](O)[C@H]1O` [Lanatoside C], in experiment [3], the “% Cross-Reactivity” value is reported as 87.1%. Take Conjugated Bilirubin: the “Spiked vs. Control” value is 102% in experiment [4]; 106% and 99% in experiment [5]. Moreover, in experiment [1] (endogenous interferents), the “Spiked vs. Control, Mean +/− SD” value is given as 101 +/− 9%. For `C[C@H]1O[C@@H](O[C@H]2[C@@H](O)C[C@H](O[C@H]3[C@@H](O)C[C@H](O[C@H]4CC[C@@]5(C)[C@H](CC[C@@H]6[C@@H]5CC[C@]5(C)[C@@H](C7=CC(=O)OC7)CC[C@]65O)C4)O[C@@H]3C)O[C@@H]2C)C[C@H](O)[C@@H]1O` [Digitoxin], the “% Cross-Reactivity” value in experiment [3] is 0.6%. `N[C@H](Cc1cc(I)c(Oc2ccc(O)c(I)c2)c(I)c1)C(=O)O` [D-triiodothyronine]: the “% Cross-Reactivity” value in experiment [2] turned out to be 3.6%. For the compound `N[C@@H](Cc1cc(I)c(O)c(I)c1)C(=O)O` [Diiodotyrosine], the “% Cross-Reactivity” value in experiment [2] was less than 0.002%. On to `C[C@H]1O[C@@H](O[C@H]2CC[C@@]3(C)[C@H](CC[C@@H]4[C@@H]3C[C@@H](O)[C@]3(C)[C@@H](C5=CC(=O)OC5)CC[C@]43O)C2)C[C@H](O)[C@@H]1O[C@H]1C[C@H](O)[C@H](O[C@H]2C[C@H](O)[C@H](O[C@@H]3O[C@H](CO)[C@@H](O)[C@H](O)[C@H]3O)[C@@H](C)O2)[C@@H](C)O1` [Deslanoside], for which the “% Cross-Reactivity” value in experiment [3] was 94.6%. Take `COc1cccc2c1C(=O)c1c(O)c3c(c(O)c1C2=O)C[C@@](O)(C(=O)CO)C[C@@H]3O[C@H]1C[C@H](N)[C@H](O)[C@H](C)O1` [Doxorubicin]: in experiment [1] (chemotherapeutic agents), the “Spiked vs. Control, Mean +/− SD” value is on record as 100 +/− 3%.

On to `N[C@@H](Cc1cc(I)c(Oc2ccc(O)cc2)c(I)c1)C(=O)O` [3,5-diiodo-L-thyronine], for which the “% Cross-Reactivity” value in experiment [2] is recorded as less than 0.002%.
